# “And” between values parts separate entries of the source, which are not always exact repeats. Identical values can stand only once.
# How the values were obtained:
# FFA1-Nluc = FFA1-Nluc (Homo sapiens, UniProt O14842); experiment: DISCo-BRET (endpoint, spectra scan, kinetics) with TUG-2591 and TUG-2597 at C terminal Nluc tagged FFA1; format: binding; parameters: expressed in transfected cells; conditions: for Specific BRET (540/450), % of control: Figure 4Bi, single replicate values (technical duplicate); for Specific BRET (690/540), % of control: technical duplicate
# Procedure: Nluc-FFA1 or FFA1-Nluc Flp-In T-REx 293 cells were plated at 50,000 cells per well in poly-D-lysine coated white 96-well plates. Cells were cultured for 24 h in the plate before medium was replaced with medium containing 100 ng/mL of doxycycline to induce receptor expression. After culturing for a further 24 h, culture medium was removed, cells washed with HBSS and incubated in HBSS for 30 min. For all DISCo-BRET formats Nano-Glo substrate was then added at a 1:800 final dilution and cells incubated for 10 min. Following substrate addition experimental set up different among the three formats: endpoint, spectra scan, and kinetics.
# For endpoint experiments all fluorescent and unlabelled ligands were added to the cells and incubated for 5 min at 37 °C. Luminescent emission was then measured using a CLARIOstar microplate reader with monochromator set at 450–60 nm (Nluc), 540−60 nm (NBD) and 690–100 nm (SulfoCy5). BRET ratios were then calculated as either SulfoCy5 emission divided by NBD emission, SulfoCy5 emission divided by Nluc emission, or NBD emission divided by Nluc emission.
# For spectra scan experiments all indicated fluorescent and unlabelled ligands were added to the cells and cells incubated for 5 min at 37 °C. Luminescence emissions were then measured from each well of the plate from 440 nm – 740 nm with a 5 nm resolution using a CLARIOstar microplate. Luminescent emission spectra were then normalised as a percentage of the maximal Nluc emission peak ( ~ 460 nm), then subtracted with the spectrum obtained in the presence of high concentrations of ligands competing for both binding sites to obtain specific BRET binding spectra.
# In kinetic DISCo-BRET experiments plates were placed directly in a CLARIOstar plate reader set to 25 °C 10 min after Nano-Glo substrate addition. Luminescent measurements were then taken with three sequential measurements per well with the monochromator set to 450–60 nm (Nluc), 540 - 60 nm (NBD) and 690–100 nm (SulfoCy5) taken in 20 or 30 s intervals. After 5 min of background measurements, the plate reader was paused for the first indicated fluorescent ligand(s) addition, before immediately returning the plate to the reader to continue luminescence readings. After 5 min, the reader was again paused to add the second fluorescent ligand (association assays) or competing ligand(s) (dissociation assays), before immediately continuing the measurements for the indicated time. Non-specific control binding was obtained by adding the indicated competing ligand(s) 5 min prior to the addition of the first fluorescent ligand.
# Nluc-FFA1 = biological target: T1, Nluc-FFA1 (Homo sapiens, UniProt O14842); experiment: NanoBRET binding (saturation, competition, kinetics) at N terminal Nluc tagged FFA1; conditions: technical duplicates; for Specific BRET (690/450)%: Figure 4Ci; for Specific BRET (540/450)%: Figure 4Cii
# T1 construct: expressed in transfected cells
# Procedure: Nluc-FFA1 or FFA1-Nluc Flp-In T-REx 293 cells were plated at 50,000 cells per well in poly-D-lysine coated white 96-well plates. Cells were cultured for 24 h in the plate before medium was replaced with medium containing 100 ng/mL of doxycycline to induce receptor expression. After culturing for a further 24 h, medium was removed, cells were washed with HBSS and incubated in HBSS for 30 min. To start the assay, NanoGlo substrate (Promega, N1110) was added to the cells at a 1:800 final dilution and incubated for 10 min at 37 °C. For endpoint assays, including both saturation and competition binding, test ligands were then added, including both fluorescent and unlabelled competing ligands as indicated, and plates incubated for a further 5 min at 37 °C. NanoBRET was then quantified in a CLARIOstar microplate reader (BMG Labtech) by measuring luminescent emission with the monochrometer set for the Nluc donor at 450–60 nm, and acceptor luminescent emission 540–60 nm (NBD), 600–80 nm (Cy3.5) or 690–100 nm (SulfoCy5), depending on which fluorophore was being tested. The acceptor/donor BRET ratio was then taken as a measure of fluorophore binding. For kinetic on then off NanoBRET experiments plates were washed the same way and substrate was added to the same concentration. However, 10 min after substrate was added plates were inserted into the CLARIOstar microplate reader set to 25 °C to take repeated measurements of luminescent emission for both the donor and the acceptor fluorophore being used. After 5 min of background measurements, the indicated concentration of fluorescent ligand was added using the plate reader injector and luminescent emission was monitored for ~10 min before the reader was paused to manually add a high concentration of appropriate competing ligand to initiate dissociation. The plate was returned to the reader and luminescence measurements were continued for a further 30 min to monitor dissociation of the fluorescent ligand. For kinetic experiments using multiple concentrations of fluorescent ligand, cells were placed in the plate reader immediately after the addition of Nano-Glo substrate and luminescent measurements were taken. After 5 min, the reader was paused to add the indicated concentrations of fluorescent ligand, before measurements were continued. To set non-specific binding for kinetic experiments, the indicated competing ligand was added 5 min before the addition of the fluorescent ligand.
# Sequence of FFA1-Nluc (O14842 whole entry): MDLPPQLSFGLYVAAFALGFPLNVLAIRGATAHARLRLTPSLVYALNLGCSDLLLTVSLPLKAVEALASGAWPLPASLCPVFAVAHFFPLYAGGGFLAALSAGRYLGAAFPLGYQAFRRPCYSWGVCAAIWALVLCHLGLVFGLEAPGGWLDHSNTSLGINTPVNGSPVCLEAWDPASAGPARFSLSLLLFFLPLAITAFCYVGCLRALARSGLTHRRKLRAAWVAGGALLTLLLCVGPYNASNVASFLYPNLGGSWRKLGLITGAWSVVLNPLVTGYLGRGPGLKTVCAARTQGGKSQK
# T1 sequence (O14842 whole entry): as above
smiles,measurement,setting,value
Cc1cc(OCCCS(C)(=O)=O)cc(C)c1-c1cccc(COc2ccc3c(c2)OC[C@H]3CC(=O)O)c1 [TAK-875],"Specific BRET (540/450), % of control",FFA1-Nluc; log[Ligand] -6,467.51 % of control and 353.62 % of control and 390.67 % of control and 390.47 % of control and 245.96 % of control and 264.46 % of control and 322.48 % of control and 320.38 % of control
same,"Specific BRET (540/450), % of control",FFA1-Nluc; log[Ligand] -6.5,416.30 % of control and 439.27 % of control and 347.06 % of control and 353.35 % of control and 259.50 % of control and 260.52 % of control and 247.59 % of control and 261.94 % of control
same,"Specific BRET (540/450), % of control",FFA1-Nluc; log[Ligand] -7,359.13 % of control and 319.17 % of control and 300.41 % of control and 327.99 % of control and 232.12 % of control and 230.66 % of control and 238.32 % of control (2×)
same,"Specific BRET (540/450), % of control",FFA1-Nluc; log[Ligand] -7.5,230.54 % of control and 249.60 % of control and 216.23 % of control and 242.80 % of control and 172.25 % of control and 154.77 % of control and 142.78 % of control and 178.30 % of control
same,"Specific BRET (540/450), % of control",FFA1-Nluc; log[Ligand] -8,168.77 % of control and 177.73 % of control and 170.59 % of control and 182.76 % of control and 139.62 % of control and 128.26 % of control and 117.24 % of control and 129.48 % of control
same,"Specific BRET (540/450), % of control",FFA1-Nluc; log[Ligand] -9,109.76 % of control and 130.42 % of control and 118.05 % of control and 144.22 % of control and 109.32 % of control and 101.46 % of control and 92.91 % of control and 104.81 % of control
same,"Specific BRET (690/540), % of control",FFA1-Nluc; log[Ligand] -9,98.23 % of control
same,"Specific BRET (540/450), % of control",FFA1-Nluc; log[Ligand] -10,110.45 % of control and 140.76 % of control and 99.39 % of control and 126.77 % of control and 105.68 % of control and 97.52 % of control and 91.86 % of control and 108.31 % of control
same,"Specific BRET (690/540), % of control",FFA1-Nluc; log[ligand] -8,82.90 % of control
same,"'bottom' of the IC50 curve, DISCo-BRET NBD/Nluc",FFA1-Nluc; percentage of binding obtained in the absence of competing ligand,360%
same,"'bottom' of the IC50 curve, DISCo-BRET SulfoCy5/NBD","FFA1-Nluc; percentage of binding obtained in the absence of competing ligand, 100 nM TUG-2591 and […] TUG-2597",-3.0%
same,Specific BRET (690/450)%,Nluc-FFA1; log[Ligand] -6,10.18% and 12.73% and 3.99% and 7.92% and 4.81% and 6.50%
same,Specific BRET (690/450)%,Nluc-FFA1; log[Ligand] -6.5,32.21% and 35.14% and 21.21% and 27.75% and 22.79% and 22.32%
same,Specific BRET (690/450)%,Nluc-FFA1; log[Ligand] -7,65.25% and 65.98% and 70.04% and 73.07% and 59.65% and 56.69%
same,Specific BRET (690/450)%,Nluc-FFA1; log[Ligand] -7.5,85.12% and 83.85% and 95.80% and 94.83% and 87.89% and 88.68%
same,Specific BRET (690/450)%,Nluc-FFA1; log[Ligand] -8,89.18% and 88.01% and 105.30% and 110.61% and 94.39% and 90.53%
same,Specific BRET (690/450)%,Nluc-FFA1; log[Ligand] -9,97.11% and 97.99% and 104.48% and 114.53% and 100.63% and 97.67%
same,Specific BRET (690/450)%,Nluc-FFA1; log[Ligand] -10,87.86% and 92.46% and 110.54% and 109.16% and 102.75% and 97.62%
same,Specific BRET (690/450)%,Nluc-FFA1; log[Ligand] -11,100.29% and 99.71% and 99.72% and 100.28% and 98.52% and 101.48%
same,Specific BRET (540/450)%,Nluc-FFA1; log[Ligand] -9,172.87% and 190.47% and 142.88% and 120.34% and 106.26% and 112.65% and 111.64% and 106.85%
same,Specific BRET (540/450)%,Nluc-FFA1; log[Ligand] -10,149.59% and 142.25% and 115.93% and 128.15% and 104.61% and 106.65% and 101.74% and 108.27%
same,Specific BRET (540/450)%,Nluc-FFA1; log[Ligand] -11,103.21% and 96.79% and 95.91% and 104.09% and 99.52% and 100.48% and 105.48% and 94.52%

# Source: article PMC12254266, “Multicolored sequential resonance energy transfer for detection of simultaneous ligand binding at G protein-coupled receptors” (Nature Communications, 2025)
